In experiment [1] the target is Lipid bilayer. The experiment in a line: Binding affinity to 10% Ergosterol containing DOPC liposomes assessed as dissociation constant for second step at 50 uM and measured from 300 to 600 sec by SPR method. In general terms: Surface plasmon resonance follows binding to a sensor surface in real time, without labels.
Experiment [2] concerns the target Lipid bilayer. The experiment in a line: Binding affinity to 10% Ergosterol containing DOPC liposomes assessed as dissociation constant at equilibrium at 50 uM and measured from 300 to 600 sec by SPR method.
For experiment [3], the target named is Lipid bilayer. The experiment in a line: Binding affinity to 10% Ergosterol containing DOPC liposomes assessed as dissociation constant for first step at 50 uM and measured from 300 to 600 sec by SPR method.
Experiment [4] deals with Lipid bilayer. The experiment is described as follows: Binding affinity to DOPC liposomes assessed as dissociation constant for first step at 50 uM and measured from 300 to 600 sec by SPR method.
Experiment [5] concerns the target Lipid bilayer. The experiment in a line: Binding affinity to DOPC liposomes assessed as dissociation constant at equilibrium at 50 uM and measured from 300 to 600 sec by SPR method.
For another experiment, the system named is Aspergillus niger. The experiment in a line: Antifungal activity against Aspergillus niger NBRC 31012 assessed as inhibition zone incubated for 2 days by disk diffusion method. In kind it is functional. Particulars: time 2 day.
The subject of experiment [6] is Lipid bilayer. The experiment is described as follows: Induction of pore formation in 10% Ergosterol containing DOPC liposomes assessed as calcein dye leakage by measuring calcein fluorescence by fluorescence microplate reader analysis.
For experiment [7], the target named is Lipid bilayer. The experiment is described as follows: Binding affinity to DOPC liposomes assessed as dissociation constant for second step at 50 uM and measured from 300 to 600 sec by SPR method.
The test system of experiment [8] is Lipid bilayer. The experiment is described as follows: Induction of pore formation in DOPC liposomes assessed as calcein dye leakage by measuring calcein fluorescence at 27 uM by fluorescence microplate reader analysis.
Experiment [9] relates to Lipid bilayer. The experiment in a line: Induction of pore formation in 10% Ergosterol containing DOPC liposomes assessed as calcein dye leakage by measuring calcein fluorescence at 10 uM by fluorescence microplate reader analysis.
Experiment [10] deals with Lipid bilayer. The experiment is described as follows: Induction of pore formation in 10% Ergosterol containing DOPC liposomes assessed as calcein dye leakage by measuring calcein fluorescence at 27 uM by fluorescence microplate reader analysis.
Experiment [11] concerns Lipid bilayer. The experiment is described as follows: Binding affinity to DOPC liposomes at 50 uM and measured upto 600 sec by SPR method.
Experiment [12] deals with Lipid bilayer. The experiment is described as follows: Binding affinity to 10% Ergosterol containing DOPC liposomes at 50 uM and measured upto 600 sec by SPR method.

The values that follow come from ChEMBL document CHEMBL5356982, “Truncated derivatives of amphidinol 3 reveal the functional role of polyol chain in sterol-recognition and pore formation” (Bioorg Med Chem Lett, 2024).

One may read the Kd as the concentration at which binding is half-saturated. By EC50 is commonly meant the concentration that produces a half-maximal response.

Activity calls are given as the source filed them. No cut-off for these calls is given here. Bounds are passed on as bounds.

Regarding `C=C/C=C/CC/C=C/C=C/C=C/CC/C=C/[C@H](O)[C@H](O)[C@@H]1O[C@@H]([C@H](O)[C@H](O)C(=C)CC[C@@H](O)[C@@H]2C[C@H](O)[C@H](O)[C@@H]([C@H](O)[C@@H](O)/C=C(\C)CC[C@H](O)C[C@H](O)[C@H](O)[C@@H](C)C[C@H](O)[C@@H](O)CCCCC[C@@H](O)CCC[C@@H](O)/C=C/C[C@@H](O)/C=C/C[C@@H](O)CO)O2)C[C@@H](O)[C@H]1O`, the Kd at Lipid bilayer [1] stood at 2.4 µM; on Lipid bilayer [2], 0.00012 µM; at Lipid bilayer [3], 51 µM; on Lipid bilayer [4], 980 µM; at Lipid bilayer [5] it was 6.9 µM; on Lipid bilayer [7], 6300 µM. Besides, the MIC with Aspergillus niger amounted to 8 µg. Moreover, the EC50 in the experiment with Lipid bilayer [6] is 2.96 µM. The outcome in the experiment on Lipid bilayer [8] was Active.
As for `C=C/C=C/CC/C=C/C=C/C=C/CC/C=C/[C@H](O)[C@H](O)[C@@H]1O[C@@H]([C@H](O)[C@H](O)C(=C)CC[C@@H](O)[C@@H]2C[C@H](O)[C@H](O)[C@@H]([C@H](O)[C@@H](O)/C=C(\C)CC[C@H](O)C[C@H](O)[C@H](O)[C@@H](C)CCO)O2)C[C@@H](O)[C@H]1O`, the step-2 equilibrium ratio on Lipid bilayer [1] was found to be 0.044. For the same compound, the Kd came to 1 µM at Lipid bilayer [2] and 25 µM on Lipid bilayer [3]. Also, the MIC with Aspergillus niger is 20 µg. Besides, the result in the experiment with Lipid bilayer [9] was Active. Moreover, the outcome in the experiment with Lipid bilayer [10] and in the experiment with Lipid bilayer [11] was inactive.
Turning to `C=C/C=C/CC/C=C/C=C/C=C/CC/C=C/[C@H](O)[C@H](O)[C@@H]1O[C@@H]([C@H](O)[C@H](O)C(=C)CC[C@@H](O)[C@@H]2C[C@H](O)[C@H](O)[C@@H]([C@H](O)[C@@H](O)CO)O2)C[C@@H](O)[C@H]1O`, in the experiment on Aspergillus niger, the MIC was above 300 µg. Also, the result with Lipid bilayer [10], in the experiment on Lipid bilayer [12] and in the experiment on Lipid bilayer [11] was inactive.
